# In patent publication US10588844B2, “Process for preparing tripeptide containing oleanolic acid and its therapeutic applications thereof” (priority 2017, dated 2020):
# Assays:
# [1] = system: Collagenase Type IV from Clostridium histolyticum; test: Anti collagenase activity (EnzChek DQ gelatin fluorescence assay); assay type: biochemical
# Description: Collagenase is one of the matrix metalloprotease, which digest collagen and other components of the extra cellular matrix (ECM). The ECM serves as a scaffold to stabilize the skin structure, and also helps in proliferation and metabolic functions of the skin cells. Loss of collagen leads to wrinkles and sagging of skin. The principle of the assay of collagenase inhibition is based on the fact that the substrate DQ™ gelatine is conjugated to fluorecein—a fluorescent compound. In DQ™ gelatine, fluorescence is quenched. DQ™ gelatine is efficiently digested by collagenases to yield a fluorescent compound which can be measured. The increase in fluorescence is proportional to enzyme activity. In the presence of an anti collagenase compound the amount of fluorescence will be decreased for a fixed concentration of enzyme and substrate.
# • Equipment-BMG FLUOstar Optima (fluorescent Microplate reader) • Reagents: Phosphate buffer (pH 7.4) • Collagenase Enzyme assay kit (Enzchek® collagenase, gelatinase assay kit, Invitrogen, USA) • Microtitre plates—96 well microtitre plates (black)—Corning, USA
# The assay was performed in a 96 well black microtitre plate. […] 100 μl of the Collagenase enzyme solution (final concentration-0.4 U/ml) was added and the fluorescence intensity was measured at Em: 485 nm and Ex: 520 nm after 30 minutes. Enzyme activity of control (buffer) was recorded. […]
# [2] = target: T1, Elastase enzyme from pig pancreas (Sus scrofa, UniProt P00772); test: Anti elastase activity (EnzChek DQ elastin fluorescence assay); assay type: biochemical
# T1 construct: purchased; host or cells: pig pancreas
# Description: Elastase is one of the […], which digest elastin and other components of the extra cellular matrix and is important both for normal skin development. If this enzyme is not regulated by inhibitor proteins results in wrinkling of skin, premature ageing and carcinogenesis. The Anti-Elastase assay by Enz Chek elastase assay kit determines the elastase inhibitory activity of the products. The assays were done using the EnzChek elastase assay kit. The substrate is DQ elastin soluble bovine neck ligament. DQ elastin is labelled with BODIPY FL dye. The non-fluorescent substrate can be digested by elastase to yield highly fluorescent fragments and in the presence of inhibitor, the fluorescence intensity is quenched. The fluorescence intensity was measured in a microplate reader ([…].)
# The assay was performed in a 96 well black microtitre plate. […] 100 μl of the Elastase enzyme solution (final concentration-0.1 U/ml) was added and the fluorescence intensity was measured at Em: 485 nm and Ex: 520 nm after 30 minutes. Enzyme activity of control (buffer) was recorded.
# [formula] • B—Fluorescence in the presence of enzyme • BC—Fluorescence in the absence of enzyme activity • T—Fluorescence of enzyme activity in the presence of inhibitor • C—Fluorescence of the inhibitor alone Result
# Human dermal fibroblasts [3] = test: Proliferation of fibroblasts (SRB assay); assay type: cell-based; conditions: concentration of 12.5% (so in the source), 72 hours
# Procedure: Human dermal fribroblasts were seeded at a density of 5×10^3 cells/well in DMEM 10% FBS and antibiotics in 96 well plate and allowed to form a monolayer in a humidified incubator at 37° C. and 5% CO2 atmosphere for 24 hours. Cells were treated with different concentration of the extract for 72 hours to assess the cytotoxicity. The viability of fibroblasts were determined by SRB assay (Nature protocols, 2006, 1, 3, 2112-16). Cells in DMEM with 0.1% DMSO was used as […] while media without cells were used as negative control
# collagen in fibroblasts = test: Collagen production / collagen staining in fibroblasts; assay type: cell-based, human
# [4] = system: TGF-β secretion by fibroblasts; test: TGF-β concentration in fibroblast culture supernatant; assay type: cell-based, human
# [5] = system: Human keratinocytes (HaCAT); test: Protection against UVB induced apoptosis, DNA damage and death (annexin-FITC/PI flow cytometry); assay type: cell-based; conditions: UVB exposed HaCAT
# Procedure: Cells: Human keratinocytes (HaCAT)—cells were maintained as a monolayer culture in Dulbeccos modified minimal essential medium (DMEM) Life technologies, CA, USA) supplemented with 10% (v/v) heat-inactivated foetal bovine serum (FBS; GIBCO/Invitrogen, Carlsbad, Calif.), 100 units/mL penicillin and 100 μg/mL streptomycin (Life technologies) at 37° C. in a humidified 5% CO2 incubator.
# Reagents: Dulbeccos modified minimal essential medium (DMEM), Fetal bovine serum (FBS), Annexin-FITC, Propidium Iodide-Apoptosis detection kit, Biovision, USA.
# Instrument: Flow Cytometry (BD-FACS-Celesta).
# Cells (3×10^5) were pre-treated with different concentrations of test sample for one hour and exposed to UVB. Cells were exposed to UVB rays for 10 min and incubated for 16 hours in DMEM with 2% serum. Cells were labelled with annexin-FITC and propidium iodide […] for 10 minutes in dark and analyzed using flow cytometer (BD FACS-Celesta).
# [6] = system: Human keratinocytes (HaCAT); test: ROS scavenging in keratinocytes, UV induced oxidative stress (DCFH-DA); assay type: cell-based; conditions: 6.25 μg/ml
# Procedure: (§1) Cells: Human keratinocytes (HaCAT)—cells were maintained in fibroblast media (Gibco) at 37° C. in a humidified 5% CO2 incubator.
# Reagents: Keratinocyte media (Gibco) DCFH-DA Instrument: FluoStar Optima microplate reader.
# (§2) Reactive oxygen species include a number of molecules that damage DNA and RNA and oxidize proteins and lipids (lipid peroxydation). These reactive molecules contain an oxygen atom/molecule and include H2O2 (hydrogen peroxide), NO (nitric oxide), O2^− ([…]), peroxynitrite (ONOO^−), hydrochlorous acid (HOCl), and hydroxyl radical (OH). 5-(and 6)-chloromethyl-20, 70-dichlorohydrofluorescein diacetate (CM-H2DCFDA) freely permeates the plasma membrane and is hydrolyzed in the cytosol to form the DCFH carboxylate anion. Oxidation results in the formation of fluorescent DCF, which is maximally excited at 495 nm and emits at 520 nm.
# Keratinocytes were seeded at 50,000 cells per well in 96 well black plates and allowed to grow as a monolayer for 24 hours. Cells were pre-treated with different concentration of Oleanoyl-KVK for one hour. The plate was exposed to UVA radiation for 1 hour. Freshly prepared DCFH-DA reagent was added to all the wells (2 ug/well). The plate was incubated at 37° C. for 30 minutes. Fluorescence was recorded at 485:520, Ex: Em wavelength in FluoStar Optima microplate reader.
# [7] = system: Human keratinocytes (HaCAT); test: ROS scavenging in keratinocytes, heavy metal induced oxidative stress; assay type: cell-based; conditions: concentration of 12.5% (so in the source)
# Procedure: as §1, §2
# Keratinocytes were seeded at 50,000 cells per well in 96 well black plates and allowed to grow as a monolayer for 24 hours. Cells were pre-treated with different concentration of Oleanoyl-KVK for one hour. […] Freshly prepared DCFH-DA reagent was added to all the wells (2 ug/well). The plate was incubated at 37° C. for 30 minutes. Fluorescence was recorded at 485:520, Ex: Em wavelength in FluoStar Optima microplate reader.
# Human dermal fibroblasts [8] = test: Gene expression analysis in dermal fibroblasts (quantitative RT-PCR); assay type: cell-based; conditions: 6.25 μg/ml, 24 hours
# Procedure: (§3) Human dermal fibroblasts and keratinocytes were cultured in 6 well microtiter plates in the presence of 6.25 μg/ml oleanoyl KVK for 24 hours. Untreated cells were used as control. At the end of incubation time, the cells were lysed and RNA was extracted. […] Extracted RNA was treated with DNAse I to remove any contaminating DNA and again extracted using phenol: chloroform: isoamyl alcohol extraction ([…]). Quality of RNA was determined by checking the absorbance at 260/280 nm using a Nanodrop (Thermo). 2 μg of total RNA was taken for cDNA synthesis using Super Script III First-Strand Synthesis System (Life Technologies). Quantitative RT-PCR analysis was performed to determine the expression of brown fat specific genes in Roche Light cycler 96 using SYBR Green master mix (Thermo Scientific). β actin was used as a house keeping gene. The relative RNA abundance of the genes was normalized to the housekeeping β actin gene and expressed as delta delta CT (equivalent to fold change transformed by Log2).
# keratinocytes = test: Gene expression analysis in keratinocytes (quantitative RT-PCR); assay type: cell-based, human; conditions: 6.25 μg/ml, 24 hours
# Procedure: as §3
# [9] = system: keratinocytes exposed to oxidative stress; test: Gene expression in keratinocytes exposed to oxidative stress (quantitative RT-PCR); assay type: cell-based, human; conditions: cells exposed to oxidative stress
# Procedure: as §3
# [10] = system: TNF-α secretion by THP-1 human monocytes; test: Anti inflammatory activity: LPS induced TNF-α secretion in THP-1 cells (ELISA); assay type: cell-based; conditions: for % Inhibition (TNF-α): LPS stimulated THP-1, 24 hour
# Procedure: Anti inflammatory activity was examined using human monocyte/macrophage cell line THP-1. Monocytes respond to lipo-polysaccharides (LPS) by secreting pro-inflammatory cytokines. Tumour necrosis factor (TNF-α) is one of the principle cytokine which triggers a cascade of inflammatory reactions. The concentration of TNF-α was measured using an Enzyme linked Immunosorbent assay (ELISA). Reduction in TNF-α concentration indicates an anti inflammatory activity of the compound.
# Cells: THP1-human monocytes purchased from American Type Culture Collection (ATCC, Manassas, Va.) and maintained as a monolayer culture in Rosewell park memorial institute Medium (RPMI Life technologies, CA, USA) supplemented with 10% (v/v) heat-inactivated foetal bovine serum (FBS; GIBCO/Invitrogen, Carlsbad, Calif.), 100 units/mL penicillin and 100 μg/mL streptomycin (Life technologies) at 37° C. in a humidified 5% CO2 incubator.
# ELISA kit: Human TNF ELISA kit, Krishgen Biosciences, USA
# 1×10^5 THP-1 cells were stimulated with 100 ng with lipopolysacharide (LPS, 0.1 μg/mL) to induce TNF-α secretion. Cells were pre treated with different concentrations of oleanoyl KVK before LPS treatment. The cell supernatants were collected 24 hour after treatment and secreted TNF-α as estimated by cytokine ELISA as described by the manufacturer. Un-stimulated cells were used as negative control. The limit of detection was <1 pg/mL.
# THP-1 cells = test: Cell viability of THP-1 cells in the anti inflammatory assay; assay type: cell-based, human
# T1 sequence (P00772 27-266): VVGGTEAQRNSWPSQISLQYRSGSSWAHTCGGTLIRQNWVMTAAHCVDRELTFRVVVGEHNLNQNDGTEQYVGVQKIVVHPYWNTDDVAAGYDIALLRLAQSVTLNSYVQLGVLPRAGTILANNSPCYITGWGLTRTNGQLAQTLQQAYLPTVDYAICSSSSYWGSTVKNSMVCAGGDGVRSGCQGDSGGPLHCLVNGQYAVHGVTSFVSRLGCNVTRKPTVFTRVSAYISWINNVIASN
structure (smiles),measurement,setting,value
"CC(C)[C@H](NC(=O)[C@H](CCCCN)NC(=O)[C@]12CCC(C)(C)C[C@H]1C1=CC[C@@H]3[C@@]4(C)CC[C@H](O)C(C)(C)[C@@H]4CC[C@@]3(C)[C@]1(C)CC2)C(=O)N[C@@H](CCCCN)C(=O)O [Oleanoyl-KVK, Lysine-Valine-Lysine (KVK) conjugated to Oleanolic acid]",inhibition of collagenase enzyme activity,[1]; 250 μg/ml,100%
same,IC50 anti collagenase activity,"[1]; DQ gelatin substrate, 30 minutes",48.8 µg/mL
same,inhibition at 250 µg/mL,[2]; 250 μg/ml,98%
same,IC50,"[2]; DQ elastin substrate, 30 minutes, read-out: IC50 anti elastase activity (printed: anti collagenase activity) (converted)",77 µM
same,increase in proliferation of fibroblasts,Human dermal fibroblasts [3],42.2%
same,increase in collagen staining in fibroblasts,collagen in fibroblasts,22.8%
same,TGF-β secretion by fibroblasts,[4],dose dependent increase
same,percent protection against UV induced DNA damage and death,[5]; 12.5 μg/ml,47.9%
same,reduction in late apoptosis,[5],concentration dependent reduction in late apoptosis
same,increase in live cells,[5]; 12.5 μg/ml,highest increase in live cells
same,reduction in early apoptosis,[5]; maximum at 12.5 μg/ml,concentration dependent reduction in early apoptosis
same,"ROS scavenging activity, UV induced stress",[6],17.1%
same,"ROS scavenging, induced by heavy metals",[7],20.4%
same,expression level of TGF-β,Human dermal fibroblasts [8],increased
same,expression level of collagen,Human dermal fibroblasts [8],increased
same,expression level of hyaluronan synthase,Human dermal fibroblasts [8],increased
same,"gene expression in keratinocytes (FIG. 10: collagen, Elastin, TGF-β, hyaluronan synthase, epidermal growth factor)",keratinocytes,increased
same,expression level of matrix metalloprotease 9,[9],down regulated
same,expression level of tumor necrosis factor α,[9],down regulated
same,% Inhibition (TNF-α),[10]; 1.56 μg/ml,12.14%
same,% Inhibition (TNF-α),[10]; 3.12 μg/ml,12.53%
same,% Inhibition (TNF-α),[10]; 6.25 μg/ml,31.01%
same,% Inhibition (TNF-α),[10]; 12.5 μg/ml,71.03%
same,IC50 anti inflammatory activity,"[10]; LPS stimulated THP-1, TNF-α ELISA",9.09 µg/mL
same,Cell viability,THP-1 cells; 1.56 μg/ml,100%
same,Cell viability,THP-1 cells; 3.12 μg/ml,100%
same,Cell viability,THP-1 cells; 6.25 μg/ml,100%
same,Cell viability,THP-1 cells; 12.5 μg/ml,100%
